Data published in patent publication US4011221A, “S-Inosylcysteine and a process for producing the same” (Funai Pharmaceutical Industries, Ltd., priority 1974, dated 1977).

Tests used:
chick embryo heart cells [1] = experiment: Effect on proliferation of chick embryo heart cells (Experiments 1 and 2); type: cell-based; details: for Cell number + S.E. / activity at 50 µg/mL: Experiment 1, 50 μg/ml; for Cell number + S.E.: 3 days incubation; for activity at 50 µg/mL / activity at 20 µg/mL: Gallus gallus, control = 100.0; for activity at 50 µg/mL: 72 h, read-out: Growth rate %; for Cell number ± S.E. / activity at 20 µg/mL: Experiment 2, 20 μg/ml; for Cell number ± S.E.: 1 day with compound after 3 days of incubation; for activity at 20 µg/mL: 24 h, read-out: Growth rate (%); for cell-proliferating activity (in words): summary statement, Tables I to V
Experimental: A. Effect of S-inosylcysteine on proliferation of chick embryo heart cells.
(§1) Method: The hearts excised from 13-day-old chick embryos were cut into pieces 1 to 2 mm in diameter under sterile conditions. After washing with calcium and magnesium-free phosphate buffered saline (PBS), the pieces of hearts were treated with a solution of 0.1% trypsin in PBS freed from calcium and magnesium ions, and the supernatant fraction was discarded. The residue was treated with a solution of 0.1% trypsin in PBS freed from calcium and magnesium ions, and the supernatant fractions containing isolated cells were collected. The procedure was repeated 3 times. The supernatant fractions were combined and diluted with cold culture medium containing 10% fetal calf serum, sodium penicillin G (100 units per ml) and sulfate streptomycin (1 μg per ml), and centrifuged at 150 xG. The resulting pellet was washed twice with the culture medium and diluted cautiously with the same culture medium to give a suspension which contains 200,000 cells per ml. One ml of the suspension was poured into each of 28 culture tubes which were equally divided into 7 groups. The cells were cultured at 37° C in an incubator. After 1 day of incubation the culture medium of the tubes was removed and 1 ml of each culture medium containing compound shown in Table I was added thereto. After additional 3 days of incubation the culture medium was removed and the cells were then treated with 1 ml of 0.1 M citric acid containing 0.1% crystal violet. The number of cells was counted with a hemocytometer in quadruplicate after vigorous shaking.
(§2) Method: The culture procedure for chick embryo heart cells was employed as described in Experiment 1. After 3 days of incubation, the culture medium was removed and 1 ml of each culture medium containing compounds shown in Table II was added thereto. After an additional 1 day of incubation the number of cells was counted.

chick embryo heart cells [2] = experiment: Effect on proliferation of chick embryo heart cells in the presence of a growth inhibitor, KCN (Experiments 3 and 4); type: cell-based; details: for activity at 50 µg/mL / activity at 20 µg/mL: Gallus gallus; for activity at 20 µg/mL: 24 h
Experimental: as §1, with “After” for “Method: The hearts excised from 13-day-old chick embryos were cut into pieces 1 to 2 mm in diameter under sterile conditions. After”, “The resulting pellet was washed twice with the culture medium and diluted cautiously with the same culture medium to give a suspension which contains 200,000 cells per ml.” left out, “shaking. […] After 3 days of incubation, the culture medium was removed and 1 ml of each culture medium containing compounds shown in Table II was added thereto. After an additional 1 day of incubation the number of cells was counted. […] Method: The culture procedure for chick embryo heart cells was employed as described in Experiment 1. After one day of incubation, the culture medium was removed and 1 ml of each culture medium containing KCN (1.7 μg per ml) and compounds shown in Table III were added thereto.” for “shaking.”

chick embryo heart cells [3] = experiment: Effect on proliferation of chick embryo heart cells in the presence of 6-mercaptopurine (Experiment 5); type: cell-based; details: Experiment 5, 20 μg/ml, 6-mercaptopurine 5 μg per ml; for activity at 20 µg/mL: Gallus gallus, 24 h
Experimental: as §1, §2
Method: Same as in Experiment 2 except that 6-mercaptopurine (5 μg per
ml) was added to each culture

pylorus ligation ulcer = experiment: Effect on pylorus ligation ulcer in rats (Experiments 6 and 7); type: in vivo, Male Wister rats; details: for anti-ulcer activity (in words): summary statement, Tables VI to VIII
Experimental: a. Effect of S-inosylcysteine on pylorus ligation ulcer.
(§3) Method: Male Wister rats (Keari Gifu-Lab.), aged 7 weeks were used. After fasting for 48 hours, rats weighing 210 to 230 g were divided into 6 groups of 10 rats. The pylorus of stomach was ligated under light anesthesia with pentobarbital sodium (25 mg per kg, i.p.). Immediately after the ligation, a psysiological saline was orally administered to one group and a solution of each tested compound (50 mg per kg) was orally administered to the remaining 5 groups. After these rats were kept without food and water for 10 hours from the ligation, the stomach was removed under anesthesia with pentobarbital sodium (30 mg per kg, i.p.). The gastric contents were aspirated and the stomach was fixed by means of the injection of 10 ml of a 2% formalin solution into the lumen. The stomach was opened along its greater curvature. The severity of the lesion of the rumen, that is, the degree of ulcer was expressed as ulcer index according to the method of Yokotani (Folia pharmacol. Japon. 56, 1373, (1960). The results are shown in Table VI.
*Inhibition rate was calculated as follows: […]
Method: The same method as described in Experiment 6 was employed. The
effect of S-inosyl-L-cysteine
on pylorus ligation ulcer was examined with intramuscular administration.

gastric secretion = experiment: Effect on gastric secretion in pylorus-ligated rats; type: in vivo, Male Wister rats; details: 50 mg/kg, p.o., 5 hours from ligation
Experimental: as §3
b. Effect of S-inosylcysteine on gastric secretion. Method: The rats were ligated in the same manner as in Experiment 6, and divided into 2 groups of 10 rats. Immediately after the ligation, a physiological saline or a solution of S-inosyl-L-cysteine was orally administered. After the rats were kept without food and water for 5 hours from the ligation, the esophagus was ligated and the stomach was removed under anesthesia with pentobarbital sodium (30 mg per kg. i.p.). The gastric contents were collected and centrifuged at 2,000 rpm for 10 minutes. The volume of supernatant was measured and its pH was determined with a pH meter (Hitach-Horiba Type M-5). Free-HCl, total-HCl and total-acidity in the supernatant were determined by the titration with 1/50 N NaOH using Topfer's solution and phenolphtalein solution as an indicator.

[4] = Experiment 3, 50 μg/ml, KCN 1.7 μg per ml
[5] = Experiment 3, 50 μg/ml, KCN 1.7 μg per ml, KCN control = 100.0, read-out: Growth Rate %
[6] = Experiment 3, 50 μg/ml, KCN 1.7 μg per ml, simultaneous with Experiment 1, read-out: Growth rate (%) with respect to control of Table I
[7] = Experiment 4, 20 μg/ml, KCN 1.7 μg per ml
[8] = Experiment 4, 20 μg/ml, KCN 1.7 μg per ml, KCN control = 100.0, read-out: Growth rate (%)
[9] = Experiment 4, 20 μg/ml, KCN 1.7 μg per ml, simultaneous with Experiment 2, read-out: Growth rate (%) with respect to control of Table II
[10] = its control = 100.0, read-out: Growth Rate (%)
[11] = simultaneous with Experiment 2, read-out: Growth rate (%) with respect to control of Table II
[12] = Experiment 6, 50 mg/kg, p.o., 10 hours from ligation

SMILES	Cell number + S.E. (chick embryo heart cells [1])	activity at 50 µg/mL (chick embryo heart cells [1])	Cell number ± S.E. (chick embryo heart cells [2]; [4])	activity at 50 µg/mL (chick embryo heart cells [2]; [5])	activity at 50 µg/mL (chick embryo heart cells [2]; [6])	Cell number ± S.E. (chick embryo heart cells [1])	activity at 20 µg/mL (chick embryo heart cells [1])	Cell number ± S.E. (chick embryo heart cells [2]; [7])	activity at 20 µg/mL (chick embryo heart cells [2]; [8])	activity at 20 µg/mL (chick embryo heart cells [2]; [9])	Cell number ± S.E. (chick embryo heart cells [3])	activity at 20 µg/mL (chick embryo heart cells [3]; [10])	activity at 20 µg/mL (chick embryo heart cells [3]; [11])	Inhibition rate (%) of ulcer (pylorus ligation ulcer; Experiment 6, 50 mg/kg, p.o.)	Mean ulcer index ± S.E. (pylorus ligation ulcer; [12])	also measured
N[C@@H](CS)C(=O)O [L-cysteine]	50.5 ± 1.3 ×10^4 cells	99.2%	41.9 ± 6.3 ×10^4 cells	131%	82.3%											
Nc1ncnc2c1ncn2[C@@H]1O[C@H](CO)[C@@H](O)[C@H]1O [adenosine]	44.1 ± 5.6 ×10^4 cells	86.6%	33.3 ± 1.9 ×10^4 cells													activity at 50 µg/mL (chick embryo heart cells [2]; read-out: Growth Rate %): 104%; activity at 50 µg/mL (chick embryo heart cells [2]; read-out: Growth rate (%) with respect to control of Table I): 65.4%
OC[C@H]1O[C@@H](n2cnc3c(O)ncnc32)[C@H](O)[C@@H]1O [inosine]	54.1 ± 2.0 ×10^4 cells	106%	37.2 ± 4.4 ×10^4 cells	116%	73.1%											
Nc1nc2c(ncn2[C@@H]2O[C@H](CSCC[C@H](N)C(=O)O)[C@@H](O)[C@H]2O)c(=O)[nH]1 [S-guanosyl-L-homocysteine]						69.2 ± 1.8 ×10^4 cells	84.8%	66.3 ± 1.4 ×10^4 cells	101%	81.3%	72.3 ± 5.5 ×10^4 cells	106%	88.6%	-8%	15.0 ± 1.8	
Nc1ncnc2c1ncn2[C@@H]1O[C@H](CSCC[C@H](N)C(=O)O)[C@@H](O)[C@H]1O [S-adenosyl-L-homocysteine]						71.5 ± 3.4 ×10^4 cells	87.6%	65.2 ± 1.8 ×10^4 cells	99.1%	79.9%	75.7 ± 1.6 ×10^4 cells	111%	92.8%	19%	11.3 ± 0.7	
N[C@@H](CCSC[C@H]1O[C@@H](n2cnc3c(=O)[nH]cnc32)[C@H](O)[C@@H]1O)C(=O)O [S-inosyl-L-homocysteine]						78.2 ± 7.5 ×10^4 cells	95.8%	73.5 ± 1.7 ×10^4 cells	112%	90.1%	65.3 ± 3.7 ×10^4 cells	95.6%	80%	12%	12.3 ± 1.1	
Nc1ncnc2c1ncn2[C@@H]1O[C@H](CSC[C@H](N)C(=O)O)[C@@H](O)[C@H]1O [S-adenosyl-L-cysteine]						74.8 ± 4.7 ×10^4 cells	91.7%	64.2 ± 3.0 ×10^4 cells	97.6%	78.7%	70.7 ± 1.2 ×10^4 cells	104%	86.6%	13%	12.1 ± 1.2	
N[C@@H](CSC[C@H]1O[C@@H](n2cnc3c(=O)[nH]cnc32)[C@H](O)[C@@H]1O)C(=O)O [S-inosyl-L-cysteine, 5'-S-(2-amino-2-carboxyethyl)-5'-thioinosine]	65.4 ± 1.6 ×10^4 cells	128%	50.9 ± 1.5 ×10^4 cells	159%	100%	97.8 ± 3.8 ×10^4 cells	120%	85.6 ± 0.4 ×10^4 cells	130%	105%	85.8 ± 2.9 ×10^4 cells	126%	105%	42%	8.1 ± 1.1	cell-proliferating activity (in words) (chick embryo heart cells [1]; listed as S-inosycysteine): superior to those of known related compounds (2) to (10); cell-proliferating activity (in words) (chick embryo heart cells [1]; listed as S-inosylcysteine): remarkable; cell-proliferating activity (in words) (chick embryo heart cells [1]; listed as S-inosylsteine): excellent; Inhibition rate (%) of ulcer (pylorus ligation ulcer; Experiment 7, 50 mg/kg, i.m.): 59%; Mean ulcer index ± S.E. (pylorus ligation ulcer; Experiment 7, 50 mg/kg, i.m.): 5.1 ± 1.6; anti-ulcer activity (in words) (pylorus ligation ulcer; listed as S-inosyl cysteine): superior to those of known related compounds (7) to (10); anti-ulcer activity (in words) (pylorus ligation ulcer; listed as S-inosylsteine): excellent; Free-HCl, inhibition rate % (gastric secretion): 36%; Total-HCl, inhibition rate (%) (gastric secretion): 23%; Total-acidity (gastric secretion): 83.2 mEq/l; Total-acidity, inhibition rate (%) (gastric secretion): 22%; Volume, inhibition rate (%) (gastric secretion): 38%; pH (gastric contents supernatant) (gastric secretion): 1.50 ± 0.06; Free-HCl (gastric secretion; ± S.E.): 42.8 ± 6.0 mEq/l; Total-HCl (gastric secretion; ± S.E.): 73.8 ± 6.4 mEq/l; Volume (gastric contents supernatant) (gastric secretion; ± S.E.): 5.3 ± 0.5 mL
